In patent US20090220528A1, “Stimulation of Toll-Like Receptors on T Cells” (THE TRUSTEES OF THE UNIVERISTY OF PENNSYLVANIA CNETER FOR …, priority 2005, published 2009):

Columns and labels:
Type in all cases: cell-based, mouse
activated CD4+ T cells = assay: Analysis of antiapoptotic molecules (Bcl-2 FACS; Bcl-xL, Bcl-3 Western blot)
Procedure: For Bcl-2 evaluation, CD4^+ T cells were permeabilized with 0.1% saponin/0.2% FBS/PBS and stained with anti-Bcl-2 PE monoclonal antibody (3F-11; BD PharMingen) or an isotype hamster IgG-PE control (A19-3; BD PharMingen) and staining was analyzed by FACS. Bcl-xL, Bcl-3, and β-actin were analyzed by Western blotting using rabbit anti-mouse Abs specific for BCl-xL (BD Transduction Laboratories, Lexington, Ky.), Bcl-3 (Santa Cruz Biotechnology, Santa Cruz, Calif.), and β-actin (Accurate Labs, Westbury, N.Y.).
Members of the Bcl family are mediators of activated CD4^+ T cell survival. […] Therefore, levels of each of these molecules were measured following TLR ligand treatment of activated CD4^+ T cells (FIGS. 4C and 4D). Bcl-2 protein levels were not changed by TLR ligand treatment relative to untreated activated CD4^+ T cell controls. Additionally, Bcl-3 protein levels were also left unaffected despite the fact that all of the TLR ligands used in the experiment are also used as adjuvants (Mitchell et al., 2001, Nat. Immunol. 2:397). […] Thus, directly mediated activated CD4^+ T cell survival is associated with specific BCl-xL up-regulation.

[1] = tested on: Foxp3+GFP+ and Foxp3-GFP- T cells; assay: Foxp3 expression (GFP reporter) and IL-6 production in Foxp3+ and Foxp3- T cells under stimulation
Procedure: In order to study the effect of stimulation conditions on Foxp3 expression, T cells were from mice having a reporter construct introduced into the FOXP3 locus (Betteli et al., 2006, Nature 441:235-238) by sorting cells based on the GFP-reporter construct. The reporter construct expresses both Fox3p and the fluorescent protein GFP. T cells that are Foxp3^− (i.e. GFP^−) and T cells that are Foxp3^+ (i.e. GFP^+) were isolated (FIG. 21A). Foxp3 expression was then assessed under different stimulation conditions, […]

CD4+ T cells = assay: TLR ligation at the time of T cell stimulation: proliferation, IL-2 production and signaling
Procedure: The present experiments were designed to assess the effects of TLR ligation at the time of T cell stimulation, and analysis of signaling pathways which mediate them.
Similar results were observed when anti-CD28 was used in combination with anti-CD3 (FIGS. 7B-7D). IL-2 production from treat T cells were also measured (FIG. 8). These effects were additive to those of anti-CD28 stimulation.
This led to the examination of other signaling pathways downstream of TLR9. For example, experiments were designed to assess the role of phosphatidyl inositol 3 kinase (PI3K) in TLR9 activation because of the ability of TLR ligation to synergize with TCR stimulation for IL-2 production and proliferation was reminiscent of CD28 functions. PI3K is a lipid kinase which catalyzes the phosphorylation of phosphatidyl inositol bis 4, 5, phosphate (PIP2) into phosphatidyl inositol tris 3, 4, 5, phosphate (PIP3). PIP3 is an important cell signaling molecule, activating protein kinase B/Akt, and other downstream pathways. In T cells, PI3K activation is a major known downstream signaling pathway of the T cell costimulatory receptor CD28.

Substance: poly(I:C)
- Bcl-xL protein (activated CD4+ T cells; over LPS-treated and untreated activated CD4+ T cells): significant increases
- Bcl-3 protein levels (activated CD4+ T cells; relative to untreated activated CD4+ T cell controls): not observed
- Foxp3 expression in Foxp3+GFP+ cells (natural Tregs) ([1]; activated by anti-CD3 plus TLR ligand (FIG. 21B)): maintained Foxp3 expression
- Foxp3 expression in Foxp3-GFP- cells (non-regulatory T cells) ([1]; stimulation with anti-CD3 and anti-CD28 antibodies and TGF-b, with additions (FIG. 22)): augmented
- IL-2 protein production with T cell stimulation (CD4+ T cells; FIG. 8): able to synergize
- TRAF6 requirement of proliferative effects (CD4+ T cells; FIG. 9): did not require TRAF6
- T cell proliferation with T cell stimulation (CD4+ T cells; with sub-mitogenic anti-CD3, with or without anti-CD28 (FIG. 7)): able to synergize
